# Reference: patent US5366880A, “Antibiotic agent” (Merck & Co., Inc., priority 1993, dated 1994)
# *1 amine or outer side, *2 acyl side, *3 side chain or, on linkers, in order; H or OH if unused. Where a SMILES comes first, the peptide text is derived from it. Bridges are numbered along the chain shown (N, C = ends). [ ]: non-standard residue; d: D form. The star is where a group is joined. ξ: configuration not given here. ξOrn(4,5-diOH) = O=C(C(CC(O)C(O)N[*:3])N[*:1])[*:2]; ξhTyr(βξ-OH,γξ-OH) = NC(C(=O)O)C(O)C(O)c1ccc(O)cc1; X2 = NC(=O)CC(O)C(N[*:1])C(=O)[*:2]; X3 = O=C(C1C(O)C(O)CN1[*:1])[*:2]; X1 = CCC(C)CC(C)CCCCCCCCC(=O)*; Hyp = O=C(O)[CH]1C[CH](O)CN1
# What was measured:
# Candida albicans = assay: minimum fungicidal concentration (MFC), microbroth dilution assay, Candida albicans; type: cell-based; conditions: 24 h
# Procedure: (§1) The antifungal properties may be illustrated with the minimum fungicidal concentration (MFC) determinations against certain Candida organisms in a microbroth dilution assay carried out in Yeast Nitrogen Base (Difco) with 1 percent dextrose (YNBD). In carrying out the assay, Compound I was solubilized in 10 percent dimethyl sulfoxide (DMSO) and diluted to 2560 μg/ml. The compound was then diluted to 256 μg/ml in YNBD. 0.15 ml of the suspension was dispensed to the top row of a 96-well plate (each well containing 0.15 ml of YNDB) resulting in a drug concentration of 128 μg/ml. Two-fold dilutions were then made from the top row to obtain final drug concentrations ranging from 128 to 0.06 μg/ml.
# (§2) The yeast cultures, maintained on Sabouraud dextrose agar were transferred to YM broth (Difco) and incubated overnight at 35° C. with shaking (250 rpm). After incubation, each culture was diluted in sterile water to yield a final concentration of 1-5×10^6 colony forming units (CFU)/ml.
# 96-well microplates were inoculated using a MIC-2000 (Dynatech) which delivers 1.5 μl per well yielding a final inoculum per well of 1.5-7.5×10^3 cells. The microplates were incubated at 35° C. for 24 hours. The minimum inhibitory concentrations (MICs) were recorded as the lowest concentrations of drug showing no visible growth.
# After recording the MIC, the plates were shaken to resuspend the cells. Thereafter, 1.5 μl samples from the wells in the 96-well microplate were transferred to a single well tray containing Sabouraud dextrose agar. The inoculated trays were incubated 24 hours at 28° C. and then read. The MFC is defined as the lowest concentration of drug showing no growth or less than 4 colonies per spot. The results (three samples) are seen in the following table: ______________________________________ Minimum Fungicidal Concentration (μg/ml) Fungi Compound Compound Strain No. IA IB ______________________________________ Candida albicans MY 1055 2 1 MY 1028 2 0.5 MY 1750 4 1 Candida tropicalis MY 1012 1 0.12 Candida pseudotropicalis MY 1100 4 2 ______________________________________
# Candida tropicalis = assay: minimum fungicidal concentration (MFC), microbroth dilution assay, Candida tropicalis; type: cell-based; conditions: 24 h, strain MY 1012, YNBD
# Procedure: as §1, §2
# (§3) 96-well microplates were inoculated using a MIC-2000 (Dynatech) which delivers 1.5 μl per well yielding a final inoculum per well of 1.5-7.5×10^3 cells. […] The minimum inhibitory concentrations (MICs) were recorded as the lowest concentrations of drug showing no visible growth.
# (§4) After recording the MIC, the plates were shaken to resuspend the cells. […] The inoculated trays were incubated 24 hours at 28° C. and then read. […]
# Candida pseudotropicalis = assay: minimum fungicidal concentration (MFC), microbroth dilution assay, Candida pseudotropicalis; type: cell-based; conditions: Kluyveromyces marxianus, 24 h; strain MY 1100; YNBD
# Procedure: as §1, §2, §3, §4
# Pneumocystis carinii = assay: effectiveness against Pneumocystis carinii pneumonia in immunosuppressed rats; type: in vivo, Sprague-Dawley rats; conditions: subcutaneously twice daily for four days; for Reduction of Cysts / Log Mean # Cysts (± SEGM): rat lung; for Log Mean # Cysts (± SEGM): * significant (t-test); for Survivors: rats
# Procedure: Compound I is useful for inhibiting or alleviating Pneumocystis carinii infections. In a representative study, the effectiveness of Compound I in rats were determined. Sprague-Dawley rats (weighing approximatley 250 g) were immunosuppressed with dexasone in the drinking water ([…]) and maintained on a low protein diet for 5 weeks to induce the development of Pneumocystis pneumonia from a latent infection. Before drug treatment 2 rats were sacrificed to confirm the presence of Pneumocystis carinii pneumonia (PCP); both rats had infections. The remaining rats (weighing approximately 150 g) were distributed into groups of 6 and injected twice daily for four days subcutaneously with compound in 0.25 ml of vehicle (10% DMSO in water or water). The control group of 5 rats received vehicle alone. All animals continued to receive dexasone in the drinking water and low protein diet during the drug treatment period. At the completion of treatment all animals were sacrificed, the lungs were removed and processed, and the extent of disease determined by microscopic analysis of stained slides. […] All groups were compared using the student t-test and results marked (*) are significant.
Structure (SMILES),"MFC (Candida albicans; strain MY 1028, YNBD) [µg/mL]","MFC (Candida albicans; strain MY 1055, YNBD) [µg/mL]","MFC (Candida albicans; strain MY 1750, YNBD) [µg/mL]",MFC (Candida tropicalis) [µg/mL],MFC (Candida pseudotropicalis) [µg/mL],Reduction of Cysts (Pneumocystis carinii; 0.15 mg/kg) [%],Log Mean # Cysts (± SEGM) (Pneumocystis carinii; 0.15 mg/kg),Survivors (Pneumocystis carinii; 0.15 mg/kg),Reduction of Cysts (Pneumocystis carinii; 0.30 mg/kg) [%],Log Mean # Cysts (± SEGM) (Pneumocystis carinii; 0.30 mg/kg),Survivors (Pneumocystis carinii; 0.30 mg/kg),Reduction of Cysts (Pneumocystis carinii; 0.60 mg/kg) [%],Log Mean # Cysts (± SEGM) (Pneumocystis carinii; 0.60 mg/kg),Survivors (Pneumocystis carinii; 0.60 mg/kg),further results
"CCC(C)CC(C)CCCCCCCCC(=O)NC1CC(O)C(O)NC(=O)C2CC(O)CN2C(=O)C(C(O)CC(N)=O)NC(=O)C(C(O)C(O)c2ccc(O)cc2)NC(=O)C2CC(O)CN2C(=O)C(C(C)O)NC1=O (stereo not drawn) [Compound IA] (X1-[ξOrn(4,5-diOH)]T[Hyp][ξhTyr(βξ-OH,γξ-OH)][X2][Hyp]; lactam 1-C; configuration not given here)",2,2,4,1,4,88.5,6.32 ± .17,6/6,94.6,5.99 ± .18,5/6,97.4,5.68 ± .19,6/6,Reduction of Cysts (Pneumocystis carinii; 1.20 mg/kg): 97.9%; Log Mean # Cysts (± SEGM) (Pneumocystis carinii; 1.20 mg/kg): 5.58 ± .11; Survivors (Pneumocystis carinii; 1.20 mg/kg): 5/6
"CCC(C)CC(C)CCCCCCCCC(=O)NC1CC(O)C(O)NC(=O)C2C(O)C(O)CN2C(=O)C(C(O)CC(N)=O)NC(=O)C(C(O)C(O)c2ccc(O)cc2)NC(=O)C2CC(O)CN2C(=O)C(C(C)O)NC1=O (stereo not drawn) [Compound IB] (X1-[ξOrn(4,5-diOH)]T[Hyp][ξhTyr(βξ-OH,γξ-OH)][X2][X3]; lactam 1-C; configuration not given here)",0.5,1,1,0.12,2,98.7,5.59 ± .11,6/6,99.4,5.22 ± .10,6/6,99.1,5.41 ± .17,6/6,Reduction of Cysts (Pneumocystis carinii; 0.03 mg/kg): 95.0%; Log Mean # Cysts (± SEGM) (Pneumocystis carinii; 0.03 mg/kg): 6.16 ± .14; Survivors (Pneumocystis carinii; 0.03 mg/kg): 6/6; Reduction of Cysts (Pneumocystis carinii; 0.07 mg/kg): 96.8%; Log Mean # Cysts (± SEGM) (Pneumocystis carinii; 0.07 mg/kg): 5.97 ± .18; Survivors (Pneumocystis carinii; 0.07 mg/kg): 6/6
